The source of these data is patent publication US5476856A, “Treatment of PAF and histamine-mediated diseases with 8-chloro-11-[1-[(5-methyl-3-pyridyl)methyl]-4-piperidyliden]-6,11-dihydr o-5H-benzo[5,6]cyclohepta[1,2-b]pyridine” (J. Uriach & Cia. S.A., priority 1992, dated 1995).

Each structure is given as a SMILES string. Where a name gives a salt, the structure may show the parent alone.

The test system of assay [1] is histamine-induced contraction of guinea-pig ileum (AntiH1). Nature of the assay: Antihistamine activity in guinea-pig ileum (Test 4, AntiH1 act.). Type of assay: cell-based, Dunkin-Hartley guinea pigs. The settings on record: for IC50: Cavia porcellus, histamine 5×10^-7 M, 5 min preincubation, read-out: Antihistaminic activity in vitro, Test 4 AntiH1 act. ileum IC50; for IC50 / antihistamine activity compared with compounds 11 and 12-14, in words / antihistamine potency in words: guinea-pig ileum. As to the method: This test was performed according to the method of Magnus. Male Dunkin-Hartley guinea pigs (b.w. 300-350 g), fasted overnight, were used. Animals were stunned, the abdomen was opened and 4 cm long ileum sections were cut. The sections were placed in a Petri dish containing Tyrode's solution at 37° C. and continuously bubbled with carbogen. The ileum fragments were washed with Tyrode's solution and then were transferred to an organ bath. Ileum contraction was measured using an isometric transducer. The initial load was 1 g. After a stabilization period of 20 min in which the organ is immersed in Tyrode's solution at 37° C. continuously bubbled with carbogen, non cumulative stimuli with submaximal doses of histamine (5×10^-7 M) were given. The contraction in absence or presence (5 min. preincubation time) of the test compounds was recorded.

For assay [2], the system named is hypotension induced by PAF. Briefly: Inhibition of the hypotensive effect induced by PAF in normotense rats (Test 2). Also noted: species or system Sprage Dawley rats. The settings on record: Rattus norvegicus; iv, 3 min before PAF 0.5 mcg/Kg i.v.; 50% inhibition of hypotension; read-out: PAF antagonism in vivo, Test 2 Art. p. ID50. As for the experimental part:
Male Sprage Dawley rats (b.w. 180-220 g) anesthetized with sodium pentobarbital (50 mg/Kg, i.p. 1 mL/100 g) are used. In order to measure the average arterial pressure, a polyethylene catheter is introduced into the carotid artery. The arterial pressure is recorded with the help of a transducer connected with a R611 Beckman polygraph. The test compounds are administered through the femoral vein 3 min. before the injection of PAF (0.5 mcg/Kg, i.v.).

The test system of assay [3] is platelet aggregation induced by PAF. Briefly: Inhibition of platelet aggregation induced by PAF (Test 1). Type of assay: cell-based, New Zealand albino rabbits. The following applies: Oryctolagus cuniculus; rabbit platelet rich plasma; PAF (C18) 16 nM final; read-out: PAF antagonism in vitro, Test 1 Plat. aggreg. IC50. As for the experimental part: The platelet rich plasma (PRP) is prepared by blood centrifugation at 250×g for 10 min. at 4° C. and it is diluted with platelet poor plasma (PPP) obtained by additional centrifugation at 3000×g for 10 min. The amount of platelets is adjusted to […].

For the next assay, the system named is mortality induced by PAF. Nature of the assay: Mortality induced by PAF in mice (p.o.) (Test 3). Type of assay: in vivo, Swiss mice. The following applies: for ED50: Mus musculus, 2 h, po, 1 h before 100 mcg/kg PAF-C18 and 1 mg/kg propanolol, 50% inhibition of mortality, read-out: PAF antagonism in vivo, Test 3 Mort. ID50. As for the experimental part: This test was performed according to the procedure described by Young et al. (Prostaglandins, 1985, 30, 545-551). Groups of 10 Swiss mice weighing from 22 to 26 g were used. 100 mcg/kg of PAF-C18 and 1 mg/kg of propanolol were administered through a lateral tail vein 1 h after the oral administration of the compounds to be tested (0.2 mL/10 g). Animals were examined 2 h after the injection of PAF. The percentage of the inhibition of the mortality induced by PAF was determined for all test compounds in comparison with the control group. The results are expressed as ID50 values, that is to say, the amount of compound by weight of animal (dose) needed to inhibit the mortality induced by PAF in a 50%.

The term IC50 denotes the midpoint of a concentration-inhibition curve. Regarding `Clc1ccc2c(c1)CCc1cccnc1C2=C1CCN(Cc2cccnc2)CC1` [Compound 1, 8-chloro-11-(1-(3-pyridylmethyl)-4-piperidyliden)-6,11-dihydro-5H-benzo[5,6]cyclohepta[1,2-b]pyridine], the IC50 in assay [1] was determined as 160 nM; in assay [3] it was 4000 nM. Also, the results for the ED50 (in assay [2]; with mortality induced by PAF) were over 5 mg/kg and 30 mg/kg, respectively.
In the case of `Cc1ccc(CN2CCC(=C3c4ccc(Cl)cc4CCc4cccnc43)CC2)cn1` [Compound 2, 8-chloro-11-(1-[(6-methyl-3-pyridyl)metyl]-4-piperidyliden)-6,11-dihydro-5H-benzo [5,6]cyclohepta[1,2-]pyridine], in assay [1], the IC50 was 37 nM; the “antihistamine activity compared with compounds 11 and 12-14, in words” value was “stronger activity than the 4-pyridine 11 and the compounds 12-14”; the “antihistamine potency in words” value was “potent antihistamines”. Further, the ED50 in assay [2] is over 5 mg/kg. Moreover, the IC50 in assay [3] turned out to be 9000 nM. In the assay on mortality induced by PAF, the ED50 was 30 mg/kg.
`Cc1ncccc1CN1CCC(=C2c3ccc(Cl)cc3CCc3cccnc32)CC1` [Compound 3, 8-chloro-11-(1-[(2-methyl-3-pyridyl)methyl]-4-piperidyliden)-6,11-dihydro-5H-benzo [5,6]cyclohepta[1,2-b]pyridine]: the half-inhibitory concentration (IC50) was 270 nM in assay [1] and 13000 nM in assay [3]. Besides, the ED50 in assay [2] was over 5 mg/kg; in the assay with mortality induced by PAF, over 30 mg/kg.
Turning to `Cc1cncc(CN2CCC(=C3c4ccc(Cl)cc4CCc4cccnc43)CC2)c1` [Compound 4, 8-chloro-11-[1-[(5-methyl-3-pyridyl)methyl]-4-piperidyliden]-6,11-dihydro-5H-benzo[5,6]cyclohepta[1,2-b]pyridine], in assay [1], the IC50 was 4.3 nM; the “antihistamine activity compared with compounds 11 and 12-14, in words” value was “stronger activity than the 4-pyridine 11 and the compounds 12-14”; the “antihistamine potency in words” value was “potent antihistamines”. In addition, in assay [1] (more potent than compound 3), the “antihistaminic potency relative to the 2-methyl derivative 3” value is about 100 fold. In addition, the “antihistaminic potency relative to compound 11” value in assay [1] (more potent than compound 11) worked out at 20 fold. Further, the “antihistaminic potency relative to the 6-methyl and 4-methyl derivatives 2 and 5” value in assay [1] (more potent than compounds 2 and 5) is 10 fold. Moreover, the ED50 in assay [2] was found to be 0.44 mg/kg. Also, in assay [3], the IC50 was 3200 nM. Further, the ED50 in the assay with mortality induced by PAF was 1.9 mg/kg. Moreover, the “activity in the PAF-induced mortality test, in words” value with mortality induced by PAF (oral administration) is listed as “strong activity”. For the same compound, the “activity in the PAF-induced mortality test relative to all the other tested compounds” value in the assay on mortality induced by PAF (oral, superior to all the other tested compounds) is at least 10 fold.
Regarding `Cc1ccncc1CN1CCC(=C2c3ccc(Cl)cc3CCc3cccnc32)CC1` [Compound 5, 8-chloro-11-(1-[(4-methyl-3-pyridyl)methyl]-4-piperidyliden)-6,11-dihydro-5H -benzo[5.6]cyclohepta[1,2]pyridine], in assay [1], the concentration for half-maximal inhibition (IC50) was found to be 35 nM; the “antihistamine activity compared with compounds 11 and 12-14, in words” value was “stronger activity than the 4-pyridine 11 and the compounds 12-14”; the “antihistamine potency in words” value is listed as “potent antihistamines”. In assay [2], the ED50 was over 5 mg/kg. For the same compound, the half-maximal inhibitory concentration (IC50) in assay [3] came out at 15000 nM. In the assay on mortality induced by PAF, the ED50 lay in the range of 10 to 30 mg/kg.
Consider `Clc1ccc2c(c1)CCc1cccnc1C2=C1CCN(Cc2cccnc2Cl)CC1` [Compound 6, 8-chloro-11-(1-[(2-chloro-3-pyridyl)methyl]-4-piperidyliden)-6,11-dihydro-5H -benzo[5,6]cyclohepta[1,2-b]pyridine], for which the 50% inhibitory concentration (IC50) in assay [1] was 350 nM; in assay [3], over 100000 nM. For the same compound, the ED50 is over 5 mg/kg in assay [2] and over 30 mg/kg with mortality induced by PAF.
For the compound `Clc1ccc2c(c1)CCc1cccnc1C2=C1CCN(Cc2ccc(Cl)nc2)CC1` [Compound 7, 8-chloro-11-(1-[(6-chloro-3-pyridyl)methyl]-4-piperidyliden)-6,11-dihydro-5H -benzo[5,6]cyclohepta[1,2-b]pyridine], the ED50 is over 5 mg/kg in assay [2] and 20 to 30 mg/kg with mortality induced by PAF. Moreover, the IC50 in assay [3] was over 100000 nM.
In the case of `Clc1ccc2c(c1)CCc1cccnc1C2=C1CCN(Cc2cncc(Br)c2)CC1` [Compound 8, 8-chloro-11-(1-[(3-bromo-5-pyridyl)methyl]-4-piperidyliden)-6,11-dihydro-5H -benzo[5,6]cyclohepta[1,2-b]pyridine, trihydrochloride], the 50% inhibitory concentration (IC50) was 280 nM in assay [1] and 720 nM in assay [3]. Further, the ED50 was over 5 mg/kg in assay [2] and under 30 mg/kg in the assay with mortality induced by PAF.
Turning to `COc1ccc(CN2CCC(=C3c4ccc(Cl)cc4CCc4cccnc43)CC2)cn1` [Compound 9, 8-chloro-11-(1-[(6-methoxy-3-pyridyl)methyl]-4-piperidyliden)-6,11-dihydro-5H -benzo[5,6]cyclohepta[1,2-b]pyridine], the IC50 in assay [1] stood at 380 nM; in assay [3], 37000 nM.
For `Clc1ccc2c(c1)CCc1cccnc1C2=C1CCN(Cc2ccncc2)CC1` [Compound 11, reference compound], the results for the IC50 in assay [1] and in assay [3] were 94 nM and 1800 nM, respectively. The ED50 in assay [2] is over 5 mg/kg; with mortality induced by PAF, 30 mg/kg.
For `CC(=O)N1CCC(=C2c3ccc(Cl)cc3CCc3cccnc32)CC1` [Compound 12, reference compound], the IC50 in assay [1] amounted to 100 nM; in assay [3], 840 nM. Further, the figures for the ED50 (in assay [2]; with mortality induced by PAF) were 2 mg/kg and 31 mg/kg, respectively.
On to `O=C(c1cc[n+]([O-])cc1)N1CCC(=C2c3ccc(Cl)cc3CCc3cccnc32)CC1` [Compound 13, reference compound], for which the half-maximal inhibitory concentration (IC50) in assay [1] amounted to 210 nM; in assay [3], 220 nM. For the same compound, the ED50 in assay [2] is 1.9 mg/kg; in the assay with mortality induced by PAF it was over 30 mg/kg.
Consider `CCOC(=O)N1CCC(=C2c3ccc(Cl)cc3CCc3cccnc32)CC1` [Compound 14, reference compound], for which the ED50 in assay [2] was over 5 mg/kg; with mortality induced by PAF it was over 30 mg/kg.
